The values below come from PMC7581224 (Journal of medicinal chemistry, 2020).

One data set has as its system MMPs. Type of data set: biochemical.
In a further data set the test system is BoNT/A. Conditions: mouse, in vivo; cited from earlier work.

Consider `CS(=O)(=O)SCCCCCCN(O)C(=O)/C=C/c1ccc(Cl)cc1Cl` [Compound 32, (E)-S-(6-(3-(2,4-dichlorophenyl)-N-hydroxyacrylamido)hexyl) methanesulfonothioate], for which the covalent inhibition result with MMPs is given as “no covalent inhibition was observed”.
For the compound `CS(=O)(=O)SCCCCCN(O)C(=O)/C=C/c1ccc(Cl)cc1Cl` [Compound 31, (E)-S-(5-(3-(2,4-dichlorophenyl)-N-hydroxyacrylamido)pentyl) methanesulfonothioate], in the data set with HEK293 cells, the IC50 entry is “did not inhibit cells to the extent that an IC50 value could be calculated”.
For `CCCCCNC(=O)CC(CC(=O)NO)c1ccc(Cl)cc1Cl` (centres unmarked) [Compound 59, 3-(2,4-dichlorophenyl)-N^1-hydroxy-N^5-pentylpentanediamide], the cellular toxicity result with HEK293 cells is given as “did not exhibit cellular toxicity”.
Regarding `CS(=O)(=O)SCCCNC(=O)CC(CC(=O)NO)c1ccc(Cl)cc1Cl` (stereo not drawn) [Compound 53, S-(3-(3-(2,4-dichlorophenyl)-5-(hydroxyamino)-5-oxopentanamido)propyl) methanesulfonothioate], the cellular toxicity entry with HEK293 cells is recorded as “did not exhibit cellular toxicity”. In addition, in the data set on MMPs, the MMP inhibition entry is “inhibits MMPs significantly less than 32” and the covalent inhibition entry is on record as “no covalent inhibition was observed”.
Regarding `O=C(/C=C/c1ccc(Cl)cc1Cl)NO` [Compound 7, 2,4-dichlorocinnamic hydroxamic acid], in the data set on BoNT/A, the rescued mice is reported as 16% and the small molecule-associated toxicity entry is “no small molecule-associated toxicity”.
